{"source": "patent US20040138193A1", "about": "“Oestrogen fatty acid monoester as a hypolipidaemic and antidiabetic agent” (priority 2001, published 2004)", "test_system": "lean rats", "test": "Lipoprotein separation by ultracentrifugation and lipid composition analysis, lean rats", "format": "in vivo, rat", "details": "10 μmol/kg daily, vs controls", "description": "Codes in bars are: triacylglycerols=white; phospholipids=lines; cholesterol=dots.\nLipoproteins in fresh plasma were fractionated by differential ultracentrifugation in known density media obtained through the addition of KBr. […] These fractions were used for the analysis of protein and lipidic components, and for the estimation of particle size.\nWhole plasma, lipoprotein fractions and LPdp were used for the analysis of protein and lipid content. Total protein was estimated with the Bradford method (cf. M. M. Bradford, Anal. Biochem. 1976, vol. 72, pp. 248-254). Total cholesterol was measured in saline with a high-performance cholesterol kit. Triacylglycerol concentrations were measured with a commercial kit and the results were corrected for free glycerol. Phospholipid was quantified by a choline-based method. […] Recoveries for all plasma components (i.e. deviations from the values in whole plasma and those derived from the sum of its content in lipoprotein fractions) were lowest for triacylglycerols (88±3%) and highest for protein (92±3%). Sudan black-prestained serum samples were sepparated by polyacrylamide gel electrophoresis. Separation of lipoprotein classes through centrifugation allowed a detailed analysis of lipoprotein composition as shown in FIGS. 3 and 4.", "data": [{"smiles": "CCCCCCCC/C=C\\CCCCCCCC(=O)Oc1ccc2c(c1)CC[C@@H]1[C@@H]2CC[C@]2(C)C(=O)CC[C@@H]12", "note": "[oleoyl-estrone]", "values": [{"measurement": "change in lipoprotein composition", "result": "little change"}, {"measurement": "change of cholesterol in the HDL fraction", "result": "decreased most"}, {"measurement": "change of total phospholipid levels in lipoprotein-depleted plasma", "result": "decrease"}]}]}
